Test results reported in PubChem BioAssay AID2060498 (Molecular Pharmacology Branch, DTP, NCI, 2025).
Each block holds one compound with its values, some of them ahead of it.

System: 171881-019-R-J1-PDC tumor spheroids, viability
Assay: Anticancer human tumor 171881-019-R-J1-PDC patient-derived invasive breast carcinoma cell line growth inhibition [GQUAD]
Settings: spheroids with HUVEC and MSC; for IC50: curve of first compound; for viability, T/C: stronger effect = lower value
Outline: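 Viability of tumor cells grown as complex spheroids with endothelial and stromal cells, exposed to drug combinations. Top concentration at or near clinical Cmax (else 10 microM), diluted in half-log increments.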

[1] = second compound 0.0316 µM, first compound 0.0316 µM
[2] = second compound 0.0316 µM, first compound 0.1 µM
[3] = second compound 0.0316 µM, first compound 0.316 µM
[4] = second compound 0.0316 µM, first compound 1 µM
[5] = second compound 0.0316 µM, first compound 3.16 µM
[6] = second compound 0.0316 µM, first compound 10 µM
[7] = second compound 0.1 µM, first compound 0.0316 µM
[8] = second compound 0.1 µM, first compound 0.1 µM
[9] = second compound 0.1 µM, first compound 0.316 µM
[10] = second compound 0.1 µM, first compound 1 µM
[11] = second compound 0.1 µM, first compound 3.16 µM
[12] = second compound 0.1 µM, first compound 10 µM
[13] = second compound 0.316 µM, first compound 0.0316 µM
[14] = second compound 0.316 µM, first compound 0.1 µM
[15] = second compound 0.316 µM, first compound 0.316 µM
[16] = second compound 0.316 µM, first compound 1 µM
[17] = second compound 0.316 µM, first compound 3.16 µM
[18] = second compound 0.316 µM, first compound 10 µM
[19] = second compound 1 µM, first compound 0.0316 µM
[20] = second compound 1 µM, first compound 0.1 µM
[21] = second compound 1 µM, first compound 0.316 µM
[22] = second compound 1 µM, first compound 1 µM
[23] = second compound 1 µM, first compound 3.16 µM
[24] = second compound 1 µM, first compound 10 µM
[25] = second compound 3.16 µM, first compound 0.0316 µM
[26] = second compound 3.16 µM, first compound 0.1 µM
[27] = second compound 3.16 µM, first compound 0.316 µM
[28] = second compound 3.16 µM, first compound 1 µM
[29] = second compound 3.16 µM, first compound 3.16 µM
[30] = second compound 3.16 µM, first compound 10 µM
[31] = second compound 10 µM, first compound 0.0316 µM
[32] = second compound 10 µM, first compound 0.1 µM
[33] = second compound 10 µM, first compound 0.316 µM
[34] = second compound 10 µM, first compound 1 µM
[35] = second compound 10 µM, first compound 3.16 µM
[36] = second compound 10 µM, first compound 10 µM
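For viability, T/C in this document: 100% = DMSO vehicle control viability.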

SMILES: Cc1cccc(N(C)C(=O)C2C(O)CCN2c2nc(C)cc(C(F)(F)F)c2C#N)c1 (stereo unspecified) + Cc1[nH]c2ccc(F)cc2c1-c1nc2c3cccnc3c3ncccc3c2[nH]1
IC50 (second compound 0.0316 µM): > 10000 nM | IC50 (second compound 0.1 µM): > 10000 nM | IC50 (second compound 0.316 µM): > 10000 nM | IC50 (second compound 1 µM): > 10000 nM | IC50 (second compound 3.16 µM): < 31.6 nM | IC50 (second compound 10 µM): 3920 nM | viability, T/C [1]: 113% | viability, T/C [2]: 94.4% | viability, T/C [3]: 95.6% | viability, T/C [4]: 95.9% | viability, T/C [5]: 100% | viability, T/C [6]: 69% | viability, T/C [7]: 105% | viability, T/C [8]: 106% | viability, T/C [9]: 93.7% | viability, T/C [10]: 90.3% | viability, T/C [11]: 81.9% | viability, T/C [12]: 77.8% | viability, T/C [13]: 97.4% | viability, T/C [14]: 95.3% | viability, T/C [15]: 91.9% | viability, T/C [16]: 91.4% | viability, T/C [17]: 102% | viability, T/C [18]: 80.7% | viability, T/C [19]: 91.7% | viability, T/C [20]: 77.7% | viability, T/C [21]: 91.8% | viability, T/C [22]: 74.6% | viability, T/C [23]: 90.5% | viability, T/C [24]: 79% | viability, T/C [25]: 23.7% | viability, T/C [26]: 18.9% | viability, T/C [27]: 30.2% | viability, T/C [28]: 25.2% | viability, T/C [29]: 20.3% | viability, T/C [30]: 22.3% | viability, T/C [31]: 47.4% | viability, T/C [32]: 59% | viability, T/C [33]: 48.1% | viability, T/C [34]: 60.5% | viability, T/C [35]: 48.8% | viability, T/C [36]: 44.3%

SMILES: Cn1ncnc1[C@H]1c2n[nH]c(=O)c3cc(F)cc(c23)N[C@@H]1c1ccc(F)cc1 + Cc1[nH]c2ccc(F)cc2c1-c1nc2c3cccnc3c3ncccc3c2[nH]1
IC50 (second compound 0.0316 µM): > 316 nM | IC50 (second compound 0.1 µM): > 316 nM | IC50 (second compound 0.316 µM): > 316 nM | IC50 (second compound 1 µM): > 316 nM | IC50 (second compound 3.16 µM): < 0.999 nM | IC50 (second compound 10 µM): < 0.999 nM | viability, T/C (second compound 0.0316 µM, first compound 0.000999 µM): 97.1% | viability, T/C (second compound 0.0316 µM, first compound 0.00316 µM): 94.5% | viability, T/C (second compound 0.0316 µM, first compound 0.00999 µM): 93.2% | viability, T/C [1]: 101% | viability, T/C (second compound 0.0316 µM, first compound 0.0999 µM): 94.6% | viability, T/C [3]: 84.5% | viability, T/C (second compound 0.1 µM, first compound 0.000999 µM): 88.5% | viability, T/C (second compound 0.1 µM, first compound 0.00316 µM): 106% | viability, T/C (second compound 0.1 µM, first compound 0.00999 µM): 90% | viability, T/C [7]: 101% | viability, T/C (second compound 0.1 µM, first compound 0.0999 µM): 99.1% | viability, T/C [9]: 87.6% | viability, T/C (second compound 0.316 µM, first compound 0.000999 µM): 102% | viability, T/C (second compound 0.316 µM, first compound 0.00316 µM): 107% | viability, T/C (second compound 0.316 µM, first compound 0.00999 µM): 91.9% | viability, T/C [13]: 84.8% | viability, T/C (second compound 0.316 µM, first compound 0.0999 µM): 102% | viability, T/C [15]: 82.4% | viability, T/C (second compound 1 µM, first compound 0.000999 µM): 79% | viability, T/C (second compound 1 µM, first compound 0.00316 µM): 76.8% | viability, T/C (second compound 1 µM, first compound 0.00999 µM): 81% | viability, T/C [19]: 75% | viability, T/C (second compound 1 µM, first compound 0.0999 µM): 89.1% | viability, T/C [21]: 78.6% | viability, T/C (second compound 3.16 µM, first compound 0.000999 µM): 20.5% | viability, T/C (second compound 3.16 µM, first compound 0.00316 µM): 18.4% | viability, T/C (second compound 3.16 µM, first compound 0.00999 µM): 23.2% | viability, T/C [25]: 21.1% | viability, T/C (second compound 3.16 µM, first compound 0.0999 µM): 19.7% | viability, T/C [27]: 17.1% | viability, T/C (second compound 10 µM, first compound 0.000999 µM): 48.6% | viability, T/C (second compound 10 µM, first compound 0.00316 µM): 52.7% | viability, T/C (second compound 10 µM, first compound 0.00999 µM): 55.2% | viability, T/C [31]: 47.3% | viability, T/C (second compound 10 µM, first compound 0.0999 µM): 56.7% | viability, T/C [33]: 58.1%

IC50 (second compound 0.0316 µM): 425 nM | IC50 (second compound 0.1 µM): 403 nM | IC50 (second compound 0.316 µM): 405 nM | IC50 (second compound 1 µM): 482 nM | IC50 (second compound 3.16 µM): 286 nM | IC50 (second compound 10 µM): 148 nM
SMILES: C#Cc1c(F)ccc2cc(O)cc(-c3ncc4c(N5CC6CCC(C5)N6)nc(OCC56CCCN5CC(F)C6)nc4c3F)c12 (stereo unspecified) + Cc1cnc(CNC(=O)c2c(=O)c3ccc(N4CCCN(C)CC4)nc3n3c2sc2ccccc23)cn1
viability, T/C [1]: 96.7% | viability, T/C [2]: 71.8% | viability, T/C [3]: 52.7% | viability, T/C [4]: 42.3% | viability, T/C [5]: 29.4% | viability, T/C [6]: 26% | viability, T/C [7]: 75.7% | viability, T/C [8]: 66% | viability, T/C [9]: 52% | viability, T/C [10]: 41.3% | viability, T/C [11]: 30.1% | viability, T/C [12]: 27.4% | viability, T/C [13]: 68% | viability, T/C [14]: 62.3% | viability, T/C [15]: 51.7% | viability, T/C [16]: 42% | viability, T/C [17]: 37.1% | viability, T/C [18]: 32.3% | viability, T/C [19]: 64.6% | viability, T/C [20]: 56.9% | viability, T/C [21]: 55.6% | viability, T/C [22]: 44.2% | viability, T/C [23]: 41% | viability, T/C [24]: 40.9% | viability, T/C [25]: 60.3% | viability, T/C [26]: 52.5% | viability, T/C [27]: 52.9% | viability, T/C [28]: 44.3% | viability, T/C [29]: 41.5% | viability, T/C [30]: 41.5% | viability, T/C [31]: 52.1% | viability, T/C [32]: 54.5% | viability, T/C [33]: 49.4% | viability, T/C [34]: 41.2% | viability, T/C [35]: 44.8% | viability, T/C [36]: 43.5%
